Publication PMC10491836, “Structural dynamics influences the antibacterial activity of a cell-penetrating peptide (KFF)3K” (Scientific Reports, 2023)
Converted amounts (≈) assume the structure as drawn. Where two headings read alike, the source gives them in different places. Positions of bridges follow the written chain, without caps; N, C: chain ends. Non-standard residues stand in square brackets, D forms with d. Residues, ends and D or L forms follow the SMILES beside them. No end group written: not given here. S5 = C=CCCC[C@](C)(N)C(=O)O

Experiments:
[1] = tested on: Gram-positive and Gram-negative strains; details: both Gram-positive and Gram-negative strains; cited from earlier work
Description: Furthermore, a single-point mutation of a peptide sequence can change its solely cell-penetrating ability into antimicrobial activity, or vice versa. It was shown that the incorporation of hydrophobic or cationic residues changed the character of a CPP into a more antibacterial one.

E. coli K12 [2] = experiment: Antibacterial activity determination, MIC; type: cell-based; details: MHB, 20 h, 37 °C, OD600; reference non-pathogenic strain; tested up to 32 µM
Description: (§1) The minimal inhibitory concentration (MIC) values were determined as follows. Bacteria were first cultured overnight in 2 mL of Lysogeny Broth (LB, VWR Chemicals) at 37 °C with shaking. Second, 20 µL of overnight culture was transferred into 2 mL of MHB medium and further cultured at 37 °C with shaking until the culture reached OD600 of 0.3. Third, the culture was diluted 1:100 in a fresh MHB medium and aliquots of 50 µL were mixed with 50 µL of the previously prepared dilutions of the tested compound in MHB on a transparent flat-bottom 96-well plate (Nest). The plate was then sealed with transparent foil (Titer-Tops) and incubated for 20 h, at 37 °C with shaking. Following incubation, OD at 600 nm was measured using the Tecan Sunrise plate reader. Growth inhibition was determined by comparing the given sample with untreated culture (Growth Control—GC) with MHB alone (Sterility Control—SC) as an additional reference. The experiment was performed in at least two biological replicates of two technical replicates each. Statistical significance was determined by a Two-way ANOVA test using GraphPad Prism 9.

E. coli O157:H7 ST2-8624 [3] = type: cell-based; details: MHB, 20 h, 37 °C, OD600; at least two biological replicates of two technical replicates; tested up to 32 µM
Description: as §1

E. coli 1841-06 [4] = type: cell-based
Description: as §1

[5] = tested on: S. aureus ATCC BAA1720 MRSA; type: cell-based; details: MHB, 20 h, 37 °C, OD600; methicillin-resistant strain; tested up to 32 µM
Description: as §1

S. aureus ATCC 29213 [6] = type: cell-based
Description: as §1

[7] = tested on: Ps. aeruginosa ATCC 27853; type: cell-based
Description: as §1

E. coli O157:H7 ST2-8624 [8] = type: cell-based; details: wells of MIC plate diluted 10, 100, 1000 times in MHB, 24 h, 37 °C
Description: (§2) The minimal bactericidal concentration (MBC) values were determined, by diluting wells from the MIC experiment plate in fresh MHB medium. Dilutions of 10, 100, and 1000 times were prepared for the MIC well and up to two higher than MIC concentrations of the tested compound. Dilutions were made on a transparent flat-bottom 96-well plate (Nest) that was next sealed and incubated for 24 h, at 37 °C with shaking. Growth in a given sample well was compared with GC and SC controls.

E. coli K12 [9] = type: cell-based
Description: as §2

E. coli 1841-06 [10] = type: cell-based; remark: listed apart in the source
Description: as §2

[11] = tested on: S. aureus ATCC BAA1720 MRSA; type: cell-based
Description: as §2

S. aureus ATCC 29213 [12] = type: cell-based; remark: listed apart in the source
Description: as §2

[13] = tested on: Ps. aeruginosa ATCC 27853; type: cell-based; remark: listed apart in the source
Description: as §2

[14] = tested on: various Gram-positive and Gram-negative strains; experiment: MIC over the panel of strains (summary statements); type: cell-based
Description: as §1

α-chymotrypsin = tested on: T1, α-chymotrypsin; experiment: in vitro; type: in vitro ADME, bovine; details: isolated enzyme chymotrypsin, pH 8
T1 construct: α-chymotrypsin from bovine pancreas; from tissue; host or cells: bovine pancreas
Description: (§3) The proteolytic stability of peptides was analyzed against α-chymotrypsin from bovine pancreas (3.4.21.1, ≥ 40 units/mg protein). Peptide solutions (340 µL) in ammonium bicarbonate buffer (0.1 M NH4HCO3, pH 8.0) were incubated with the appropriate amount of chymotrypsin at 37 °C with rapid shaking (600 rpm). Chymotrypsin and peptides were mixed in the 1:1333 ratio[47],[71]. Digestion mixture (60 µL) was taken at 4, 8, 12, 16, and 20 min and treated with 3 µL of 50% acetonitrile containing 1% TFA to stop the reaction and immediately store in ice. Peptide degradation was analyzed with RP-HPLC using the analytical method from 15 to 75% of acetonitrile in 30 min. Before the injection, the sample was diluted by adding 57 µL of ammonium bicarbonate buffer. 100 µL of the solution taken in each period was injected. The stabilities were quantified as the percentage of the peptide peak of area degradation. The total area of each peak was determined for experiments without chymotrypsin. Each experiment was performed twice on different days.

[15] = target: T2, α-chymotrypsin from bovine pancreas (Bos taurus, UniProt P00766); experiment: in vitro; type: in vitro ADME; details: pH 8
T2 construct: α-chymotrypsin from bovine pancreas; from tissue; host or cells: bovine pancreas
Description: as §3

[16] = MHB, 20 h, 37 °C, OD600, tested up to 32 µM
[17] = wells of MIC plate diluted 10, 100, 1000 times in MHB, 24 h, 37 °C

## KETWWETWWTEWSQPKKKRKV [Pep-1, amphipathic cell-penetrating peptide quoted from the literature]
[1]
  MIC: 32 to 64 µM

## C[C@@]1(C(=O)N[C@@H](CCCCN)C(=O)N[C@@H](Cc2ccccc2)C(=O)N[C@@H](Cc2ccccc2)C(=O)N[C@@H](CCCCN)C(N)=O)CCCC=CCCC[C@](C)(NC(=O)[C@@H](N)CCCCN)C(=O)N[C@@H](Cc2ccccc2)C(=O)N[C@@H](CCCCN)C(=O)N[C@@H](Cc2ccccc2)C(=O)N1 [(KFF)3K[2–6]] (H-K[S5]FKF[S5]KFFK-NH2; staple 2-6)
E. coli K12 [2]
  MIC: 2 µM (≈ 2.74 µg/mL)
E. coli O157:H7 ST2-8624 [3]
  MIC: 4 µM (≈ 5.48 µg/mL)
E. coli 1841-06 [4]; 1841-06, 20 h
  MIC: 4 µM (≈ 5.48 µg/mL)
[5]
  MIC: 8 µM (≈ 11 µg/mL)
S. aureus ATCC 29213 [6]; ATCC 29213, 20 h
  MIC: 16 µM (≈ 21.9 µg/mL)
[7]; ATCC 27853, 20 h
  MIC: 4 to 8 µM
E. coli O157:H7 ST2-8624 [8]
  MBC: 4 µM (≈ 5.48 µg/mL)
E. coli K12 [9]; K12, 24 h
  MBC: 2 µM (≈ 2.74 µg/mL)
E. coli 1841-06 [10]; 1841-06, 24 h
  MBC: 4 µM (≈ 5.48 µg/mL)
[11]; ATCC BAA1720, 24 h
  MBC: 16 to 32 µM
S. aureus ATCC 29213 [12]; ATCC 29213, 24 h
  MBC: 16 to 32 µM
[13]; ATCC 27853, 24 h
  MBC: 8 µM (≈ 11 µg/mL)

## polymyxin B
E. coli K12 [2]
  MIC: 0.125 µM
E. coli O157:H7 ST2-8624 [3]
  MIC: 0.5 to 1 µM
E. coli 1841-06 [4]; MHB, 20 h, 37 °C, OD600, β-lactam resistant strain, tested up to 32 µM
  MIC: 1 µM
[5]
  MIC: > 32 µM
S. aureus ATCC 29213 [6]; [16]
  MIC: > 32 µM
[7]; [16]
  MIC: 1 µM
[14]; Gram-positive strains, tested up to 32 µM
  antibacterial activity: not active
E. coli O157:H7 ST2-8624 [8]
  MBC: 0.5 to 1 µM
E. coli K12 [9]; [17]
  MBC: 0.125 µM
E. coli 1841-06 [10]; [17]
  MBC: 1 µM
[11]; [17]
  MBC: > 32 µM
S. aureus ATCC 29213 [12]; [17]
  MBC: > 32 µM
[13]; [17]
  MBC: 1 µM

## KFFKFFKFFK-NH2 [(KFF)3K]
E. coli K12 [2]
  MIC: 32 µM
α-chymotrypsin
  metabolised at 20 min: 70%
E. coli O157:H7 ST2-8624 [3]
  MIC: 32 µM
E. coli 1841-06 [4]; 1841-06, 20 h
  MIC: > 32 µM
[5]
  MIC: > 32 µM
S. aureus ATCC 29213 [6]; ATCC 29213, 20 h
  MIC: > 32 µM
[7]; ATCC 27853, 20 h
  MIC: 32 µM
[14]; all Gram-positive and Gram-negative strains tested
  MIC: > 32 µM
E. coli O157:H7 ST2-8624 [8]
  MBC: ≥ 32 µM
E. coli K12 [9]; K12, 24 h
  MBC: 32 µM
E. coli 1841-06 [10]; 1841-06, 24 h
  MBC: > 32 µM
[11]; ATCC BAA1720, 24 h
  MBC: > 32 µM
S. aureus ATCC 29213 [12]; ATCC 29213, 24 h
  MBC: > 32 µM
[13]; ATCC 27853, 24 h
  MBC: ≥ 32 µM

## C[C@@]1(C(=O)N[C@@H](CCCCN)C(N)=O)CCCC=CCCC[C@](C)(NC(=O)[C@H](CCCCN)NC(=O)[C@H](Cc2ccccc2)NC(=O)[C@H](Cc2ccccc2)NC(=O)[C@@H](N)CCCCN)C(=O)N[C@@H](Cc2ccccc2)C(=O)N[C@@H](CCCCN)C(=O)N[C@@H](Cc2ccccc2)C(=O)N1 [(KFF)3K[5–9]] (H-KFFK[S5]FKF[S5]K-NH2; staple 5-9)
E. coli K12 [2]
  MIC: 2 µM (≈ 2.74 µg/mL)
[15]
  peptide remained undigested after incubation in chymotrypsin solution: 90%
E. coli O157:H7 ST2-8624 [3]
  MIC: 8 µM (≈ 11 µg/mL)
E. coli 1841-06 [4]; 1841-06, 20 h
  MIC: 4 µM (≈ 5.48 µg/mL)
[5]
  MIC: 16 µM (≈ 21.9 µg/mL)
S. aureus ATCC 29213 [6]; ATCC 29213, 20 h
  MIC: 8 to 16 µM
[7]; ATCC 27853, 20 h
  MIC: 4 µM (≈ 5.48 µg/mL)
E. coli O157:H7 ST2-8624 [8]
  MBC: 8 µM (≈ 11 µg/mL)
E. coli K12 [9]; K12, 24 h
  MBC: 2 µM (≈ 2.74 µg/mL)
E. coli 1841-06 [10]; 1841-06, 24 h
  MBC: 8 µM (≈ 11 µg/mL)
[11]; ATCC BAA1720, 24 h
  MBC: 32 µM (≈ 43.8 µg/mL)
S. aureus ATCC 29213 [12]; ATCC 29213, 24 h
  MBC: 16 µM (≈ 21.9 µg/mL)
[13]; ATCC 27853, 24 h
  MBC: 4 µM (≈ 5.48 µg/mL)
